Target: Potassium voltage-gated channel subfamily A member 5 (Homo sapiens, UniProt P22460)
Assay: Inhibition Assay: CHO-K1 cell lines stably expressing human Kv1.5 channels were prepared in the following manner.Full-length human Kv1.5 cDNA was cloned from a human heart cDNA library (produced by Stratagene). The obtained human Kv1.5 sequence corresponds to the sequence described in FASEB J. 5, 331-337 (1991).The obtained human Kv1.5 cDNA was inserted into a plasmid encoding a CMV promoter and a G418 resistance marker to produce a Kv1.5 expression vector. The human Kv1.5 expression vector was transfected into CHO-K1 cells by the lipofectamine method. After culturing the cells in an F-12 medium (produced by Invitrogen Corp.) containing 10% FBS (produced by Invitrogen Corp.) for 3 or 4 days, the medium was replaced with a FBS-containing F-12 medium that included 1,000 ug/ml of G418 (produced by Invitrogen Corp.), and single colonies were isolated. The amount of Kv1.5 channel expression in the single colonies was quantified at the mRNA level by RT-PCR and then quantified at the protein level.
Format: cell-based

Chain of Potassium voltage-gated channel subfamily A member 5 (P22460 whole entry): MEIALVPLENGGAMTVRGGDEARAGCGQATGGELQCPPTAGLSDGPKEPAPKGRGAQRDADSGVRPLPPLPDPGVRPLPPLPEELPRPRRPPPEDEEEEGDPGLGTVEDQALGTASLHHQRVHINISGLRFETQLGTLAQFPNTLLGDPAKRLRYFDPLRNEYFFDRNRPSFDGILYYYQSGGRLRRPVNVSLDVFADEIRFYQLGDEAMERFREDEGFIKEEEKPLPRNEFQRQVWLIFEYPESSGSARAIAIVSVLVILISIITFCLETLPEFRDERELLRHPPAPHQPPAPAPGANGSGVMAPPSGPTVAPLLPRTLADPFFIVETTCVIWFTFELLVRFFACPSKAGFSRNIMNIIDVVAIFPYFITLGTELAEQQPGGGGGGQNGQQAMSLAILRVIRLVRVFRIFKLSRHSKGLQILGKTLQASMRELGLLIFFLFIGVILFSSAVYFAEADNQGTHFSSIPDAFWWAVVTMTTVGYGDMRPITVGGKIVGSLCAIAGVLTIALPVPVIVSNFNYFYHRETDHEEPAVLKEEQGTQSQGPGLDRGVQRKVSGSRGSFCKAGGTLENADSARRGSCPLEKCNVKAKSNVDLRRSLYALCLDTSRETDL

Cn1c(=O)ccc2cc(OCCCCCN(CCc3cccnc3)C(=O)c3cccnc3)ccc21
IC50: 1400 nM

Source: ChEMBL document CHEMBL3886423, “Nitrogen-containing compounds and pharmaceutical compositions thereof for the treatment of atrial fibrillation” (2015)
